The values that follow are results of earlier work, collected in patent US20160107977A1, “METHODS OF SYNTHESIS OF INGENOL AND INTERMEDIATES THEREOF” (LEO LABORATORIES LIMITED, priority 2013, published 2016).

One data set concerns Epstein-Barr virus. The conditions noted are these: lymphoblastoid cells; Keller et al. 1982.
Data set [1] concerns breast cancer cell line T47D. The conditions noted are these: p53-mediated pathway, Vigone et al. 2005.
In data set [2] the test system is breast cancer cell line MDA-MB-231. The conditions noted are these: p53-mediated pathway, Vigone et al. 2005.

With `CCCCCCCCCCCCCCCC(=O)O[C@H]1C(C)=C[C@]23C(=O)[C@@H](C=C(CO)[C@@H](O)[C@]12O)[C@H]1[C@@H](C[C@H]3C)C1(C)C`, in the data set with Epstein-Barr virus, the Epstein-Barr virus induction result is listed as “most potent Epstein-Barr virus inducer”.
Turning to `CC1=CC23C(=O)C(C=C(COC(=O)c4ccccc4)C(O)C2(O)C1O)C1C(CC3C)C1(C)C` (stereo not drawn) [ingenol-20-benzoate], the antitumour activity entry in data set [1] is “antitumour activity characterized by inhibition of cell growth and apoptotic cell death”; in data set [2], “antitumour activity characterized by inhibition of cell growth and apoptotic cell death”.
